In US8436186B2, “Thiazolyl piperidine derivatives” (Merck Patent Gesellschaft mit beschrankter Haftung, priority 2008, dated 2013):
pIC50: −log10 of the molar value.

Each molecule was assayed against SphK1 (Homo sapiens, UniProt Q9NYA1) (assay: SphK1 384-well flashplate kinase assay). Settings: enzyme assay.
Format: biochemical
Description: The kinase assay is carried out as a 384-well flashplate assay.
5 nM modified SphK1, 800 nM omega-biotinyl-D-erythro-sphingosine and 1 μM ATP (with 0.3 μCi of ^33P-ATP/well) are incubated in a total volume of 50 μl (25 mM HEPES, 5 mM MgCl2, 1 mM dithiothreitol, 0.01% of Brij35, 0.1% of BSA (fatty acid-free), pH 7.4) without or with test substance (5-10 concentrations) at 30° C. for 120 min. The reaction is terminated using 25 μl of 200 mM EDTA solution, filtered off with suction at room temperature after 30 min, and the cavities are washed 3 times with 100 μl of 0.9% NaCl solution. The non-specific proportion of the kinase reaction (blank) is determined using 0.5 mM NaCl. Radioactivity is measured in topcount. IC50 values are calculated using RS1.

Sequence of SphK1 (Q9NYA1 whole entry): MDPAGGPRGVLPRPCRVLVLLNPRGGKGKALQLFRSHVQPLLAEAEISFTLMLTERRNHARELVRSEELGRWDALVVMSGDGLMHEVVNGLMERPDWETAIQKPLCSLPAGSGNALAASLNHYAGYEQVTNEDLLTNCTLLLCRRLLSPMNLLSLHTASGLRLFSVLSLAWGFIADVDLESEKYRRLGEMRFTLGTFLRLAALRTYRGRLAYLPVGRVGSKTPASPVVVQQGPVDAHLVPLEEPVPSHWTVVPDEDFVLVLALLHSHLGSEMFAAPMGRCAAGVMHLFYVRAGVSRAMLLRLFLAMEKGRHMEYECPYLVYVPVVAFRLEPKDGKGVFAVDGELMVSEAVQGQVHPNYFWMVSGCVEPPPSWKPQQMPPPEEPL

Row | SMILES | pIC50
1 | CN1CCCC(COC(=O)N2CCC(c3nc(-c4ccc5c(c4)C(C)(C)CCC5(C)C)cs3)CC2)C1 (stereo not shown) [Compound A50] | < 5.00
2 | CC1(C)CCC(C)(C)c2cc(-c3csc(C4CCN(C(=O)NCC(N)=O)CC4)n3)ccc21 [Compound A44] | < 5.00
3 | CN(C)CCN1CCC(c2nc(-c3ccc4c(c3)CCCC4)cs2)CC1 [Compound A6] | < 5.00
4 | CC1(C)CCC(C)(C)c2cc(-c3csc(C4CCN(C(=O)OCCN5CCCC5)CC4)n3)ccc21 [Compound A49] | < 5.00
5 | NC(=O)CN1CCC(c2nc(-c3ccc4c(c3)CCCC4)cs2)CC1 [Compound A3] | < 5.00
6 | CCN1CCCC(N2CCC(c3nc(-c4ccc5c(c4)C(C)(C)CCC5(C)C)cs3)CC2)C1 (stereo not shown) [Compound A2, 1′-ethyl-4-[4-(5,5,8,8-tetramethyl-5,6,7,8-tetrahydronaphthalen-2-yl)thiazol-2-yl]-[1,3]bipiperidinyl] | 5.00 to 6.00
7 | COc1ccccc1N1CCN(CCN2CCC(c3nc(-c4ccc5c(c4)C(C)(C)CCC5(C)C)cs3)CC2)CC1 [Compound A35] | < 5.00
8 | CC1(C)CCC(C)(C)c2cc(-c3csc(C4CCN(CCn5c(=O)[nH]c6ccccc6c5=O)CC4)n3)ccc21 [Compound A24] | 5.00 to 6.00
9 | CC1(C)CCC(C)(C)c2cc(-c3csc(C4CCN(Cc5ccc(CO)o5)CC4)n3)ccc21 [Compound B9] | 5.00 to 6.00
10 | CC1(C)CCC(C)(C)c2cc(-c3csc(C4CCN(CC(N)=O)CC4)n3)ccc21 [Compound A8] | 5.00 to 6.00
11 | CC(CN(C)C)N1CCC(c2nc(-c3ccc4c(c3)C(C)(C)CCC4(C)C)cs2)CC1 (stereo not shown) [Compound A29] | 5.00 to 6.00
12 | CN(C)n1cccc1CN1CCC(c2nc(-c3ccc4c(c3)C(C)(C)CCC4(C)C)cs2)CC1 [Compound B14] | 5.00 to 6.00
13 | CC(CO)(CO)C(=O)N1CCC(c2nc(-c3ccc4c(c3)C(C)(C)CCC4(C)C)cs2)CC1 [Compound A57] | 5.00 to 6.00
14 | CN(C)CCOCCOC(=O)N1CCC(c2nc(-c3ccc4c(c3)C(C)(C)CCC4(C)C)cs2)CC1 [Compound A47] | 5.00 to 6.00
15 | CN1CCCC1CCN1CCC(c2nc(-c3ccc4c(c3)C(C)(C)CCC4(C)C)cs2)CC1 (stereo not shown) [Compound A5] | 5.00 to 6.00
16 | CC1(C)CCC(C)(C)c2cc(-c3csc(C4CCN(Cc5ccccn5)CC4)n3)ccc21 [Compound A77] | 5.00 to 6.00
17 | CN(C)CCCNC(=O)N1CCC(c2nc(-c3ccc4c(c3)C(C)(C)CCC4(C)C)cs2)CC1 [Compound A42] | 5.00 to 6.00

Row | SMILES | pIC50
18 | CCN(CC)C(=O)CN1CCC(c2nc(-c3ccc4c(c3)C(C)(C)CCC4(C)C)cs2)CC1 [Compound A18] | 5.00 to 6.00
19 | CC(CN1CCOCC1)CN1CCC(c2nc(-c3ccc4c(c3)C(C)(C)CCC4(C)C)cs2)CC1 (stereo not shown) [Compound A1, 4-(2-methyl-3-{4-[4-(5,5,8,8-tetramethyl-5,6,7,8-tetrahydronaphthalen-2-yl)thiazol-2-yl]piperidin-1-yl}propyl)morpholine] | < 5.00
20 | CC1(C)CCC(C)(C)c2cc(-c3csc(C4CCN(C[C@@H](O)CO)CC4)n3)ccc21 [Compound A12] | 5.00 to 6.00
21 | CC1(C)CCC(C)(C)c2cc(-c3csc(C4CCN(C(=O)c5ccncc5)CC4)n3)ccc21 [Compound A52] | 5.00 to 6.00
22 | CN1CCCCC1CCN1CCC(c2nc(-c3ccc4c(c3)C(C)(C)CCC4(C)C)cs2)CC1 (stereo not shown) [Compound A23] | 5.00 to 6.00
23 | CC1(C)CCC(C)(C)c2cc(-c3csc(C4CCN(CCN5CCCC5)CC4)n3)ccc21 [Compound A21] | 5.00 to 6.00
24 | OCCCN1CCC(c2nc(-c3ccc4c(c3)CCCC4)cs2)CC1 [Compound A13] | 5.00 to 6.00
25 | CC1(C)CCC(C)(C)c2cc(-c3csc(C4CCN(CC(=O)N5CCOCC5)CC4)n3)ccc21 [Compound A31] | 5.00 to 6.00
26 | CC1(C)CCC(C)(C)c2cc(-c3csc(C4CCN(CC5CNC(=O)O5)CC4)n3)ccc21 (stereo not shown) [Compound A27] | 5.00 to 6.00
27 | CN(C)CCN1CCC(c2nc(-c3ccc4c(c3)C(C)(C)CCC4(C)C)cs2)CC1 [Compound A4] | 5.00 to 6.00
28 | CC1(C)CCC(C)(C)c2cc(-c3csc(C4CCN(Cc5ccncc5)CC4)n3)ccc21 [Compound A74] | 5.00 to 6.00
29 | CCN(CC)CCNC(=O)N1CCC(c2nc(-c3ccc4c(c3)C(C)(C)CCC4(C)C)cs2)CC1 [Compound A45] | < 5.00
30 | CC1(C)CCC(C)(C)c2cc(-c3csc(C4CCN(S(C)(=O)=O)CC4)n3)ccc21 [Compound A83] | < 5.00
31 | CC1(C)CCC(C)(C)c2cc(-c3csc(C4CCN(C(=O)[C@@H](N)CC(N)=O)CC4)n3)ccc21 [Compound A69] | 5.00 to 6.00
32 | CN(C)CC(=O)N1CCC(c2nc(-c3ccc4c(c3)C(C)(C)CCC4(C)C)cs2)CC1 [Compound A55] | < 5.00
33 | CC1(C)CCC(C)(C)c2cc(-c3csc(C4CCN(C(=O)[C@@H](N)Cc5cnc[nH]5)CC4)n3)ccc21 [Compound A63, (S)-2-amino-3-(3H-imidazol-4-yl)-1-{4-[4-(5,5,8,8-tetramethyl-5,6,7,8-tetrahydronaphthalen-2-yl)thiazol-2-yl]piperidin-1-yl}-propan-1-one] | 5.00 to 6.00

Other lines, results leading:

Row | pIC50 | SMILES
34 | 5.00 to 6.00 | COCCCOC(=O)N1CCC(c2nc(-c3ccc4c(c3)C(C)(C)CCC4(C)C)cs2)CC1 [Compound A46, 3-methoxypropyl 4-[4-(5,5,8,8-tetramethyl-5,6,7,8-tetrahydronaphthalen-2-yl)thiazol-2-yl]piperidine-1-carboxylate]
35 | 5.00 to 6.00 | CCn1nccc1CN1CCC(c2nc(-c3ccc4c(c3)C(C)(C)CCC4(C)C)cs2)CC1 [Compound B11]
36 | 5.00 to 6.00 | CC1(C)CCC(C)(C)c2cc(-c3csc(C4CCN(CCCO)CC4)n3)ccc21 [Compound A16]
37 | 5.00 to 6.00 | Cc1noc(C)c1CN1CCC(c2nc(-c3ccc4c(c3)C(C)(C)CCC4(C)C)cs2)CC1 [Compound B12]
38 | 5.00 to 6.00 | CC1(C)CCC(C)(C)c2cc(-c3csc(C4CCN(C(=O)Cc5ccncc5)CC4)n3)ccc21 [Compound A51, 2-pyridin-4-yl-1-{4-[4-(5,5,8,8-tetramethyl-5,6,7,8-tetrahydronaphthalen-2-yl)thiazol-2-yl]piperidin-1-yl}ethanone]
39 | 6.00 to 8.00 | CC1(C)CCC(C)(C)c2cc(-c3csc(C4CCN(CCN)CC4)n3)ccc21 [Compound A81]
40 | 5.00 to 6.00 | CC(=O)N1CCC(c2nc(-c3ccc4c(c3)C(C)(C)CCC4(C)C)cs2)CC1 [Compound A80]
41 | 5.00 to 6.00 | OC[C@H](O)CN1CCC(c2nc(-c3ccc4c(c3)CCCC4)cs2)CC1 [Compound A15]
42 | 5.00 to 6.00 | CCN(CC)CCCN1CCC(c2nc(-c3ccc4c(c3)C(C)(C)CCC4(C)C)cs2)CC1 [Compound A36]
43 | 6.00 to 8.00 | CC1(C)CC(C)(C)c2cc(-c3csc(C4CCNCC4)n3)ccc21 [Compound C7]
44 | 5.00 to 6.00 | CC1(C)CCC(C)(C)c2cc(-c3csc(C4CCN(C(=O)OCC5CNCCO5)CC4)n3)ccc21 (stereo not shown) [Compound B16]
45 | 5.00 to 6.00 | OCCN1CCC(c2nc(-c3ccc4c(c3)CCCC4)cs2)CC1 [Compound A11]
46 | 6.00 to 8.00 | CC1(C)CCC(C)(C)c2cc(-c3csc(C4CCN(Cc5ncc[nH]5)CC4)n3)ccc21 [Compound B13]
47 | 6.00 to 8.00 | Cc1[nH]cnc1CN1CCC(c2nc(-c3ccc4c(c3)C(C)(C)CCC4(C)C)cs2)CC1 [Compound A72]
48 | 5.00 to 6.00 | Cn1cnc(CN2CCC(c3nc(-c4ccc5c(c4)C(C)(C)CCC5(C)C)cs3)CC2)c1 [Compound A71]
49 | 5.00 to 6.00 | CC1(C)CCC(C)(C)c2cc(-c3csc(C4CCN(C(=O)[C@@H](N)CO)CC4)n3)ccc21 [Compound A64]
50 | 6.00 to 8.00 | CC1(C)CCC(C)(C)c2cc(-c3csc(C4CCN(C[C@H](O)CO)CC4)n3)ccc21 [Compound A22]

Row | pIC50 | SMILES
51 | 5.00 to 6.00 | CC1(C)CCC(C)(C)c2cc(-c3csc(C4CCN(C(=O)NCCc5ccccn5)CC4)n3)ccc21 [Compound A43]
52 | 5.00 to 6.00 | CC1(C)CCC(C)(C)c2cc(-c3csc(C4CCN(C(=O)[C@H]5C[C@H](O)CN5)CC4)n3)ccc21 [Compound A68]
53 | 6.00 to 8.00 | CC1(C)CCCc2cc(-c3csc(C4CCN(CCCCO)CC4)n3)ccc21 [Compound B3]
54 | 5.00 to 6.00 | COCCCNC(=O)N1CCC(c2nc(-c3ccc4c(c3)C(C)(C)CCC4(C)C)cs2)CC1 [Compound A79]
55 | 6.00 to 8.00 | CC1(C)CCC(C)(C)c2cc(-c3csc(C4CCN(C(=O)[C@H](N)CCCCO)CC4)n3)ccc21 [Compound A66]
56 | 6.00 to 8.00 | CCN1CCC(c2nc(-c3ccc4c(c3)C(C)(C)CCC4(C)C)cs2)CC1 [Compound A34]
57 | 6.00 to 8.00 | CC(C)NCC(O)CN1CCC(c2nc(-c3ccc4c(c3)C(C)(C)CCC4(C)C)cs2)CC1 (stereo not shown) [Compound A20]
58 | 6.00 to 8.00 | COCC(O)CN1CCC(c2nc(-c3ccc4c(c3)C(C)(C)CCC4(C)C)cs2)CC1 (stereo not shown) [Compound A17]
59 | 6.00 to 8.00 | c1cc2c(cc1-c1csc(C3CCNCC3)n1)CCCC2 [Compound C6]
60 | 6.00 to 8.00 | CC(CO)N1CCC(c2nc(-c3ccc4c(c3)C(C)(C)CCC4(C)C)cs2)CC1 (stereo not shown) [Compound A38]
61 | 6.00 to 8.00 | CC1(C)CC(C)(C)c2cc(-c3csc(C4CCN(CCCCO)CC4)n3)ccc21 [Compound B6]
62 | 6.00 to 8.00 | CC1(C)CCC(C)(C)c2cc(-c3csc(C4CCN(CCCCN5CCOCC5)CC4)n3)ccc21 [Compound A30]
63 | 6.00 to 8.00 | CC1(C)CC(C)(C)c2cc(-c3csc(C4CCN(CCCCCO)CC4)n3)ccc21 [Compound B5]
64 | 6.00 to 8.00 | CC1(C)CCC(C)(C)c2cc(-c3csc(C4CCN(CCCCCO)CC4)n3)ccc21 [Compound B10]
65 | 6.00 to 8.00 | COCCN1CCC(c2nc(-c3ccc4c(c3)C(C)(C)CCC4(C)C)cs2)CC1 [Compound A32]
66 | 6.00 to 8.00 | CC1(C)CC(C)(C)c2cc(-c3csc(C4CCN(CCCO)CC4)n3)ccc21 [Compound B4]
67 | 6.00 to 8.00 | CC1(C)CCCc2ccc(-c3csc(C4CCNCC4)n3)cc21 [Compound C3]
